Where a name gives a salt, the structure may show the parent alone.
Legend:
[1] = test system: MM.1S multiple myeloma cell line; experiment: CellTiter 96 AQueous One Solution cell proliferation assay, MM.1S; format: cell-based; details: Homo sapiens, MM1.S, 72 h of treatment, read-out: Cytotoxicity Assay
Source text: The CellTiter 96® AQueous One Solution cell proliferation assay (Promega) was used on MM.1S multiple myeloma cell line to study the cytotoxic and cytostatic properties of the compounds. The assay is based on the cleavage of the tetrazolium salt, MTS, in the presence of an electron-coupling reagent PES (phenazine ethosulfate). The MTS tetrazolium compound is bioreduced by cells into a colored formazan product that is soluble in tissue culture medium. This conversion is presumably accomplished by NADPH or NADH produced by dehydrogenase enzymes in metabolically active cells. Assays are performed by adding a small amount of the CellTiter 96® AQueous One solution reagent directly to culture wells, incubating for 1-4 hours and then recording the absorbance at 490 nm with a 96-well plate reader.
The cells were seeded at 5×10^3 to 1.5×10^4 cells in each well of a 96-well plate in 100 μL of fresh culture medium and adherent cells were allowed to attach overnight. The stock solutions of the compounds were diluted in cell culture medium to obtain eight concentrations of each drug, ranging from 1 nM to 30 μM and DMSO at less than 1% v/v was used as a negative control. The resulting drug solutions were transferred onto the cells. After 72 h of treatment, 20 μl of CellTiter 96® AQueous reagent was added into each well of the 96-well assay plates and the plate was incubated at 37° C. for 1-4 hours in a humidified, 5% CO2 atmosphere. Then the absorbance of each well was recorded at 490 nm using a 96-well plate reader. In most cases, the assay was performed in triplicate and the results were presented as half maximal inhibitory concentration (IC50). Optical density versus compound concentration was plotted and analyzed using non-linear regression equations (IDBS XLfit) and the IC50 for each compound was calculated.

[2] = Pharmacokinetic (PK) assay, plasma AUC in mice; format: in vivo; details: 10 mg/kg po; for AUC(0-inf): mouse, plasma
Protocol: AUC. Blood was collected from mice (N=3) to contribute to the total of 10 time points (pre-dose, 5 min, 15 min, 30 min, 1 hour, 2 hours, 4 hours, 8 hours, 12 hours and 24 hours post dose). Mice were bled on a rotating basis, each mouse contributing 3 time points to the blood collection. At the designated time points, animals were anaesthetized under isoflurane, and approximately 110 μL of blood per time point was collected via retro-orbital puncture into pre-cooled K2EDTA (anti-coagulant) tubes. Blood samples were put on wet ice and centrifuged (2000 g, 5 min at 4° C.) to obtain plasma within 30 minutes of sample collection. All samples were stored frozen at approximately −80° C. until analysis. Prior to analysis, samples were mixed with internal standard (dexamethasone) in acetonitrile, vortexed, centrifuged, and supernatant was injected for analysis. Concentration of compounds in plasma was determined using LC-MS-MS instrumentation (API 4000, Triple Quadruple with electrospray ionization; Acuity Ultra Performance Liquid Chromatography column C18, with MeOH and formic acid as organic solvents). AUC values were calculated using WinNonlin Professional 6.2 software package, non-compartmental pharmacokinetic model NCA200.

[3] = Brain to Plasma (B:P) ratio in mice; format: in vivo; details: 10 mg/kg po, 2 hours post-dose; for Kp at 2 h: mouse, brain/plasma
Protocol: Brain to Plasma (B:P) Ratio. […] Following collection, brain tissue was rinsed with cold saline, dried on filter paper, weighed and snap-frozen by placing on dry ice. All samples were stored frozen at approximately −80° C. until analysis. […] Plasma samples were treated with the identical method (except homogenization step) and the concentration of compound in each matrix was calculated based on generated standard curves.

[4] = target: T1, CRM1-mediated nuclear export (Homo sapiens, UniProt O14980); experiment: RevGFP assay, inhibition of nuclear export; format: cell-based; details: U2OS-RevGFP cells, about 1 hr incubation; read-out: Rev Export
T1 construct: endogenous in cells; host or cells: U2OS-RevGFP cells
T1 sequence (O14980 whole entry): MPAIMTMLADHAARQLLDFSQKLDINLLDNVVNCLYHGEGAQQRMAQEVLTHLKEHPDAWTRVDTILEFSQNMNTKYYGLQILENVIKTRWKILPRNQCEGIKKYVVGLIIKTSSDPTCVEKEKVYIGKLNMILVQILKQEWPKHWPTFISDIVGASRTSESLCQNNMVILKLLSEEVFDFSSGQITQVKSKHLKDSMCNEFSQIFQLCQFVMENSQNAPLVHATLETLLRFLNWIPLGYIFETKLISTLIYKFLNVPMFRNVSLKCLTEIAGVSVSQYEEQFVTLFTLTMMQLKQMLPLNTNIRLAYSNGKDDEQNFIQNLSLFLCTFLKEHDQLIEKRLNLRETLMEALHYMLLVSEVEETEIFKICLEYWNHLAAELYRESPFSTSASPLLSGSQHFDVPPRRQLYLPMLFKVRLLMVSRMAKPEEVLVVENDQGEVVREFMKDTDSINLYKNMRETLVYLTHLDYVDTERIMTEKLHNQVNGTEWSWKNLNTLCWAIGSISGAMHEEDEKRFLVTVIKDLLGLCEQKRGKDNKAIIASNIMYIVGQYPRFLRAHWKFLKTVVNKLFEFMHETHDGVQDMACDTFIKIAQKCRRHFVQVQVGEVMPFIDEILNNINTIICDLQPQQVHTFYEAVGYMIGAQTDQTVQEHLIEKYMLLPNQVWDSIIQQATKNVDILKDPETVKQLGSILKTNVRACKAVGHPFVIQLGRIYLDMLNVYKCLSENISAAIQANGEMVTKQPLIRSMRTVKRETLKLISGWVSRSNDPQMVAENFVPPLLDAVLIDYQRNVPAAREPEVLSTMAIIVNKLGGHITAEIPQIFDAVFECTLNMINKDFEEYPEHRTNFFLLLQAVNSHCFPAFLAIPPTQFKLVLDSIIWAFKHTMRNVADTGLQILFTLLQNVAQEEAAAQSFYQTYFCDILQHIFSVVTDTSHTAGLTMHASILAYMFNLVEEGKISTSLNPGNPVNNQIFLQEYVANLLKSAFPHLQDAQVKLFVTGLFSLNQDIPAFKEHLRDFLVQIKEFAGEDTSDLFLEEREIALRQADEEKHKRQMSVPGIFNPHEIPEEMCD
Protocol: The ability of exemplary compounds of the invention to inhibit CRM1-mediated nuclear export was assessed in a RevGFP assay. Rev is a protein from human immunodeficiency virus type 1 (HIV-1) and contains a nuclear export signal (NES) in its C-terminal domain and a nuclear localization signal (NLS) in its N-terminal domain. Nuclear export of Rev protein is dependent on the classical NES/CRM1 pathway (Neville et al. 1997).
In this assay, U2OS-RevGFP cells were seeded onto clear-bottomed, black, 384-well plates the day before the experiment. Compounds were serially diluted 1:2 in DMEM, starting from 40 μM in a separate, 384-well plate, and then transferred onto the cells. The cells were incubated with compound for about 1 hr before fixation with 3.7% formaldehyde and nuclei staining with Hoechst 33258. The amount of GFP in cell nuclei was measured and the IC50 of each compound was determined (Kau et al. 2003).

With `O=C(/C=C\n1cnc(-c2cc(C(F)(F)F)cc(C(F)(F)F)c2)n1)NN1CCCC1` [Compound I-6, (Z)-3-(3-(3,5-bis(trifluoromethyl)phenyl)-1H-1,2,4-triazol-1-yl)-N-(pyrrolidin-1-yl)acrylamide] the IC50 [1] was at most 1000 nM.

`CN(NC(=O)/C=C\n1cnc(-c2cc(C(F)(F)F)cc(C(F)(F)F)c2)n1)c1ccccn1` [Compound I-7, (Z)-3-(3-(3,5-bis(trifluoromethyl)phenyl)-1H-1,2,4-triazol-1-yl)-N‘-methyl-N’-(pyridin-2-yl)acrylohydrazide] gave an AUC(0-inf) [2] of 12200 ng·h/mL, an IC50 [1] of at most 1000 nM and a Kp at 2 h [3] of 1.5. It also gave an IC50 [4] of at most 1000 nM.

Compound `CN(NC(=O)/C=C\n1cnc(-c2cc(C(F)(F)F)cc(C(F)(F)F)c2)n1)c1cnccn1` [Compound I-8, (Z)-3-(3-(3,5-bis(trifluoromethyl)phenyl)-1H-1,2,4-triazol-1-yl)-N′-methyl-N′-(pyrazin-2-yl)acrylohydrazide] has an AUC(0-inf) [2] of 4600 ng·h/mL, an IC50 [1] of at most 1000 nM and a Kp at 2 h [3] of 2.1. The IC50 [4] was at most 1000 nM.

Work on `Cc1cccnc1N(C)NC(=O)/C=C\n1cnc(-c2cc(C(F)(F)F)cc(C(F)(F)F)c2)n1` [Compound I-9, (Z)-3-(3-(3,5-bis(trifluoromethyl)phenyl)-1H-1,2,4-triazol-1-yl)-N′-methyl-N′-(3-methylpyridin-2-yl)acrylohydrazide] yielded an IC50 [1] of at most 1000 nM.

`Cc1ccc(NNC(=O)/C=C\n2cnc(-c3cc(C(F)(F)F)cc(C(F)(F)F)c3)n2)nc1` [Compound I-10, (Z)-3-(3-(3,5-bis(trifluoromethyl)phenyl)-1H-1,2,4-triazol-1-yl)-N′-(5-methylpyridin-2-yl)acrylohydrazide] gave an AUC(0-inf) [2] of 4170 ng·h/mL, an IC50 [1] of at most 1000 nM and a Kp at 2 h [3] of 0.77.

Compound `CN(NC(=O)/C=C\n1cnc(-c2cc(C(F)(F)F)cc(C(F)(F)F)c2)n1)c1cccnc1` [Compound I-11, (Z)-3-(3-(3,5-bis(trifluoromethyl)phenyl)-1H-1,2,4-triazol-1-yl)-N′-methyl-N′-(pyridin-3-yl)acrylohydrazide] has an IC50 [1] of at most 1000 nM.

Work on `O=C(/C=C\n1cnc(-c2cc(C(F)(F)F)cc(C(F)(F)F)c2)n1)NNc1cccnc1` [Compound I-13, (Z)-3-(3-(3,5-bis(trifluoromethyl)phenyl)-1H-1,2,4-triazol-1-yl)-N′-(pyridin-3-yl)acrylohydrazide] yielded an IC50 [1] of at most 1000 nM.

Work on `O=C(/C=C\n1cnc(-c2cc(C(F)(F)F)cc(C(F)(F)F)c2)n1)NNc1cnc2ccccc2n1` [Compound I-14, (Z)-3-(3-(3,5-bis(trifluoromethyl)phenyl)-1H-1,2,4-triazol-1-yl)-N′-(quinoxalin-2-yl)acrylohydrazide] yielded an IC50 [1] of at most 1000 nM.

`O=C(/C=C\n1cnc(-c2cc(C(F)(F)F)cc(C(F)(F)F)c2)n1)NNC1CCS(=O)(=O)C1` (centres unmarked) [Compound I-15, (Z)-3-(3-(3,5-bis(trifluoromethyl)phenyl)-1H-1,2,4-triazol-1-yl)-N′-(1,1-dioxotetrahydrothiophen-3yl)acrylohydrazide] gave an IC50 [1] of at most 1000 nM.

With `O=C(/C=C\n1cnc(-c2cc(C(F)(F)F)cc(C(F)(F)F)c2)n1)NN1CCCCCC1` [Compound I-16, (Z)—N-(azepan-1-yl)-3-(3-(3,5-bis(trifluoromethyl)phenyl)-1H-1,2,4-triazol-1-yl)acrylamide] the IC50 [1] was at most 1000 nM.

`Cc1cc(NNC(=O)/C=C\n2cnc(-c3cc(C(F)(F)F)cc(C(F)(F)F)c3)n2)nc(C)n1` [Compound I-17, (Z)-3-(3-(3,5-bis(trifluoromethyl)phenyl)-1H-1,2,4-triazol-1-yl)-N′-(2,6-dimethylpyrimidin-4-yl)acrylohydrazide] showed an IC50 [1] of at most 1000 nM.

Compound `O=C(/C=C/n1cnc(-c2cc(C(F)(F)F)cc(C(F)(F)F)c2)n1)NNc1cnccn1` [Compound I-18, (E)-3-(3-(3,5-bis(trifluoromethyl)phenyl)-1H-1,2,4-triazol-1-yl)-N′-(pyrazin-2-yl) acrylohydrazide] has an AUC(0-inf) [2] of 7140 ng·h/mL and an IC50 [1] of at most 1000 nM.

In the case of `O=C(/C=C\n1cnc(-c2cc(C(F)(F)F)cc(C(F)(F)F)c2)n1)NNc1ccncc1` [Compound I-19, (Z)-3-(3-(3,5-bis(trifluoromethyl)phenyl)-1H-1,2,4-triazol-1-yl)-N′-(pyridin-4-yl) acrylohydrazide hydrochloride], the AUC(0-inf) [2] is reported as 4020 ng·h/mL, the IC50 [1] is reported as at most 1000 nM and the Kp at 2 h [3] is reported as 0.2.

With `O=C(/C=C\n1cnc(-c2cc(C(F)(F)F)cc(C(F)(F)F)c2)n1)NN1CCN(Cc2ccccc2)CC1` [Compound I-20, (Z)-N-(4-benzylpiperazin-1-yl)-3-(3-(3,5-bis(trifluoromethyl)phenyl)-1H-1,2,4-triazol-1-yl) acrylamide] the IC50 [1] was at most 1000 nM.

For `CCN1CCN(NC(=O)/C=C\n2cnc(-c3cc(C(F)(F)F)cc(C(F)(F)F)c3)n2)CC1` [Compound I-21, (Z)-3-(3-(3,5-bis(trifluoromethyl)phenyl)-1H-1,2,4-triazol-1-yl)-N-(4-ethylpiperazin-1-yl)acrylamide], the IC50 [1] was at most 1000 nM.

For `O=C(/C=C\n1cnc(-c2cc(C(F)(F)F)cc(C(F)(F)F)c2)n1)NN1CCOCC1` [Compound I-22, (Z)-3-(3-(3,5-bis(trifluoromethyl)phenyl)-1H-1,2,4-triazol-1-yl)-N-morpholinoacrylamide], the IC50 [1] was at most 1000 nM.

With `O=C(/C=C\n1cnc(-c2cc(C(F)(F)F)cc(C(F)(F)F)c2)n1)NNc1ccncn1` [Compound I-23, (Z)-3-(3-(3,5-bis(trifluoromethyl)phenyl)-1H-1,2,4-triazol-1-yl)-N′-(pyrimidin-4-yl)acrylohydrazide] the IC50 [1] was at most 1000 nM.

For `O=C(/C=C\n1cnc(-c2cc(C(F)(F)F)c(Cl)c(C(F)(F)F)c2)n1)NNc1cnccn1` [Compound I-24, (Z)-3-(3-(4-chloro-3,5-bis(trifluoromethyl)phenyl)-1H-1,2,4-triazol-1-yl)-N′-(pyrazin-2-yl)acrylohydrazide], the AUC(0-inf) [2] was 3350 ng·h/mL, the IC50 [1] was at most 1000 nM and the Kp at 2 h [3] was 0.7.

Work on `O=C(/C=C\n1cnc(-c2cc(C(F)(F)F)cc(C(F)(F)F)c2)n1)NNC1CC1` [Compound I-25, (Z)-3-(3-(3,5-bis(trifluoromethyl)phenyl)-1H-1,2,4-triazol-1-yl)-N′-cyclopropylacrylohydrazide] yielded an IC50 [1] of at most 1000 nM.

With `O=C(/C=C\n1cnc(-c2cc(C(F)(F)F)cc(C(F)(F)F)c2)n1)NN1CC(O)C1` [Compound I-26, (Z)-3-(3-(3,5-bis(trifluoromethyl)phenyl)-1H-1,2,4-triazol-1-yl)-N-(3-hydroxyazetidin-1-yl)acrylamide] the IC50 [1] was at most 1000 nM.

In the case of `COc1cc(-c2ncn(/C=C\C(=O)OC(C)C)n2)cc(C(F)(F)F)c1` [Compound X-1, reference compound], the AUCInf ([2]; 10 mg/kg) is reported as “below the limit of detection”, the IC50 [1] is reported as at most 1000 nM and the IC50 [4] is reported as at most 1000 nM.

`CC(C)OC(=O)/C=C\n1cnc(-c2cc(OC(C)C)cc(C(F)(F)F)c2)n1` [Compound X-2, reference compound] showed an IC50 [1] of at most 1000 nM and an IC50 [4] of at most 1000 nM.

With `O=C(/C=C\n1cnc(-c2cc(C(F)(F)F)cc(C(F)(F)F)c2)n1)N1CC(F)(F)C1` [Compound X-3, reference compound] the IC50 [1] was at most 1000 nM, the “B:P” value [3] was 5.0 and the IC50 [4] was at most 1000 nM.
